The values below come from EP3406693B1, “FREEZER OIL FOR R32 REFRIGERANT AND COMPOSITION COMPRISING SAME” (NOF Corporation, priority 2016, dated 2017).

Common to all, as to format: physicochemical
Series [1] is described as follows: Cloud point of additive in 1,1,1,3,3-pentafluorobutane/ethyl acetate (JIS 2269). The following applies: 10 mass % in 1,1,1,3,3-pentafluorobutane/ethyl acetate 75/25 (mass ratio). Here is the method: As the aforementioned additive, any can be used as long as it has a cloud point of not less than -30°C when measured under the aforementioned conditions. Only one kind of the aforementioned additive may be used or two or more kinds thereof may be used in combination. […] The cloud point of the aforementioned additive as measured under the above-mentioned conditions is preferably not less than -20°C, more preferably not less than -15°C. The cloud point can be measured according to JIS 2269 "Testing Methods for Pour Point and Cloud Point of Crude Oil and Petroleum Products".
The cloud point when the additive (triphenyl phosphate and glycerol monooleate) used in the production of the below-mentioned refrigerating machine oil composition was dissolved at a concentration of 10 mass % in a mixed solvent of 1,1,1,3,3-pentafluorobutane and ethyl acetate at a mass ratio (1,1,1,3,3-pentafluorobutane/ethyl acetate) of 75/25 was measured according to JIS 2269. The cloud point of triphenyl phosphate measured under these conditions was -3°C and the cloud point of glycerol monooleate was 25°C.

The next series in a line: Acid number (JIS C2101). Here is the method: According to JIS C2101, the acid number of ester A1 and the like was measured.
Another series in a line: Pour point (JIS K2269). Here is the method: According to JIS K2269, the pour point of ester A1 and the like was measured.
Series [2] can be described thus: Two-layer separation temperature of ester A1 to A8 and R32 refrigerant. The following applies: ester 2 g + R32 refrigerant 6 g, range -60°C to +40°C. Here is the method:
Using the aforementioned ester A1 to ester A8 as a refrigerating machine oil, a two-layer separation temperature of ester A1 to ester A8 and R32 refrigerant was measured as follows. To be specific, any of ester A1 to ester A8 (2 g) and R32 refrigerant (6 g) were sealed in a pressure-resistant glass tube and cooled from 40°C at a rate of 1°C/min by using an ethanol bath containing dry ice. The temperature at which ester and R32 refrigerant was separated in two layers was measured within the range of -60°C to +40°C by visual observation. One with a two-layer separation temperature of +40°C or above was evaluated as ×, +40°C to -10°C as ○, and - 10°C or below as ⊙.

For `CCCCCCCC/C=C\CCCCCCCC(=O)OCC(O)CO` (stereo not drawn) [glycerol monooleate], in series [1], the cloud point was 25 °C.

As to `O=P(Oc1ccccc1)(Oc1ccccc1)Oc1ccccc1` [triphenyl phosphate], the cloud point in series [1] is -3 °C.

On to `CCCCOC(=O)CC(O)(CC(=O)OCCCC)C(=O)OCCCC` [ester A6], for which the acid number in “Acid number (JIS C2101)” is on record as 0.1 or below mgKOH/g. The compound also showed a pour point in the series “Pour point (JIS K2269)” of -50 °C. Further, the two-layer separation temperature in series [2] (cooled from 40°C at 1°C/min, visual) is not above -60 °C. For the same compound, the “two-layer separation temperature (evaluation)” value in series [2] is “⊙ (- 10 °C or below as ⊙)”.
